Results published in paper PMC3497017, “Antioxidant and Anti-Protease Activities of Diazepinomicin from the Sponge-Associated Micromonospora Strain RV115” (Marine Drugs, 2012).

Molecular target: T1, human cathepsin L (Homo sapiens, UniProt P07711)
T1 construct: gene CTSL
Assay: fluorogenic Cbz-Phe-Arg-AMC hydrolysis with inner-filter correction, confirmed by HPLC-based assay
Format: biochemical

T1 sequence (P07711 114-288): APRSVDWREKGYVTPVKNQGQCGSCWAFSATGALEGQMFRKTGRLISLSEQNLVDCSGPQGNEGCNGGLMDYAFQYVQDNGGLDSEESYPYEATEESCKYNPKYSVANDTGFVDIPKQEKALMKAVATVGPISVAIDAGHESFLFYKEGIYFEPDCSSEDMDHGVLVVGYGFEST
T1 sequence (P07711 292-333): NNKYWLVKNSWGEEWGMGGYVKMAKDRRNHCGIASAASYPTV

IC50: 72.4 ± 5.3 µM
SMILES: CC(C)=CCC/C(C)=C/CC/C(C)=C/CN1C(=O)c2cccc(O)c2Nc2c(O)cc(O)cc21 [compound 1, diazepinomicin]
